Experimental data: PubChem BioAssay (NCI)
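How tested: cells in 96-well plates exposed to compound for 48 hours at five concentrations. TGI is the concentration that stops growth completely.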

Key:
Assay in all cases: inhibition of tumour cell growth, NCI panel, 48 h
HS 578T breast = system: HS 578T breast
PC-3 prostate = system: PC-3 prostate
IGROV1 ovarian = system: IGROV1 ovarian
M14 melanoma = system: M14 melanoma
HT29 colon = system: HT29 colon
SNB-19 CNS = system: SNB-19 CNS
A549 NSCLC = system: A549 NSCLC
SK-MEL-5 melanoma = system: SK-MEL-5 melanoma
UO-31 renal = system: UO-31 renal
SR leukemia = system: SR leukemia
DU-145 prostate = system: DU-145 prostate
SF-295 CNS = system: SF-295 CNS
MOLT-4 leukemia = system: MOLT-4 leukemia
NCI/ADR-RES ovarian = system: NCI/ADR-RES ovarian
T-47D breast = system: T-47D breast
HOP-62 NSCLC = system: HOP-62 NSCLC
UACC-62 melanoma = system: UACC-62 melanoma
NCI-H226 lung = system: NCI-H226 lung
SF-539 CNS = system: SF-539 CNS
CCRF-CEM leukemia = system: CCRF-CEM leukemia
RPMI-8226 leukemia = system: RPMI-8226 leukemia
TK-10 renal = system: TK-10 renal
HCT-116 colon = system: HCT-116 colon
CAKI-1 renal = system: CAKI-1 renal
OVCAR-3 ovarian = system: OVCAR-3 ovarian
SW-620 colon = system: SW-620 colon
786-0 renal = system: 786-0 renal
MALME-3M melanoma = system: MALME-3M melanoma
MDA-MB-435 = system: MDA-MB-435
U251 CNS = system: U251 CNS
EKVX NSCLC = system: EKVX NSCLC
OVCAR-4 ovarian = system: OVCAR-4 ovarian
UACC-257 melanoma = system: UACC-257 melanoma
HOP-92 NSCLC = system: HOP-92 NSCLC
SNB-75 CNS = system: SNB-75 CNS
K-562 leukemia = system: K-562 leukemia
MDA-MB-231 breast = system: MDA-MB-231 breast
OVCAR-8 ovarian = system: OVCAR-8 ovarian
SK-MEL-28 melanoma = system: SK-MEL-28 melanoma
SF-268 CNS = system: SF-268 CNS
ACHN renal = system: ACHN renal
HL-60(TB) leukemia = system: HL-60(TB) leukemia
SK-MEL-2 melanoma = system: SK-MEL-2 melanoma
SK-OV-3 ovarian = system: SK-OV-3 ovarian
HCT-15 colon = system: HCT-15 colon
MCF7 breast = system: MCF7 breast
MDA-N = system: MDA-N
COLO 205 colon = system: COLO 205 colon
NCI-H23 lung = system: NCI-H23 lung
HCC-2998 colon = system: HCC-2998 colon
NCI-H522 lung = system: NCI-H522 lung
A498 renal = system: A498 renal
RXF 393 renal = system: RXF 393 renal
KM12 colon = system: KM12 colon
SN12C renal = system: SN12C renal
LOX IMVI melanoma = system: LOX IMVI melanoma
NCI-H460 lung = system: NCI-H460 lung
BT-549 breast = system: BT-549 breast
OVCAR-5 ovarian = system: OVCAR-5 ovarian

Measured: TGI

C[C@H](CCC(=O)O)[C@H]1CC[C@H]2[C@@H]3[C@@H](O)C[C@@H]4C[C@H](O)CC[C@]4(C)[C@H]3CC[C@]12C
> 100 µM: HS 578T breast | PC-3 prostate | IGROV1 ovarian | M14 melanoma | HT29 colon | SNB-19 CNS | A549 NSCLC | SK-MEL-5 melanoma | UO-31 renal | SR leukemia | DU-145 prostate | SF-295 CNS | MOLT-4 leukemia | NCI/ADR-RES ovarian | T-47D breast | HOP-62 NSCLC | UACC-62 melanoma | NCI-H226 lung | SF-539 CNS | CCRF-CEM leukemia | RPMI-8226 leukemia | TK-10 renal | HCT-116 colon | CAKI-1 renal | OVCAR-3 ovarian | SW-620 colon | 786-0 renal | MALME-3M melanoma | MDA-MB-435 | U251 CNS | EKVX NSCLC | OVCAR-4 ovarian | UACC-257 melanoma | HOP-92 NSCLC | SNB-75 CNS | K-562 leukemia | MDA-MB-231 breast | OVCAR-8 ovarian | SK-MEL-28 melanoma | SF-268 CNS | ACHN renal | HL-60(TB) leukemia | SK-MEL-2 melanoma | SK-OV-3 ovarian | HCT-15 colon | MCF7 breast | MDA-N | COLO 205 colon | NCI-H23 lung | HCC-2998 colon | NCI-H522 lung | A498 renal | RXF 393 renal | KM12 colon | SN12C renal | LOX IMVI melanoma | NCI-H460 lung | BT-549 breast | OVCAR-5 ovarian

CCCCCOC(=O)C(=O)Nc1n[nH]nc1C(N)=O
> 100 µM: HS 578T breast | PC-3 prostate | IGROV1 ovarian | M14 melanoma | HT29 colon | SNB-19 CNS | A549 NSCLC | SK-MEL-5 melanoma | UO-31 renal | SR leukemia | DU-145 prostate | SF-295 CNS | MOLT-4 leukemia | NCI/ADR-RES ovarian | T-47D breast | HOP-62 NSCLC | UACC-62 melanoma | NCI-H226 lung | SF-539 CNS | CCRF-CEM leukemia | RPMI-8226 leukemia | TK-10 renal | HCT-116 colon | CAKI-1 renal | OVCAR-3 ovarian | SW-620 colon | 786-0 renal | MALME-3M melanoma | MDA-MB-435 | U251 CNS | EKVX NSCLC | OVCAR-4 ovarian | UACC-257 melanoma | HOP-92 NSCLC | SNB-75 CNS | K-562 leukemia | MDA-MB-231 breast | OVCAR-8 ovarian | SK-MEL-28 melanoma | SF-268 CNS | ACHN renal | HL-60(TB) leukemia | SK-MEL-2 melanoma | SK-OV-3 ovarian | HCT-15 colon | MCF7 breast | MDA-N | COLO 205 colon | NCI-H23 lung | HCC-2998 colon | NCI-H522 lung | A498 renal | RXF 393 renal | KM12 colon | SN12C renal | LOX IMVI melanoma | NCI-H460 lung | BT-549 breast | OVCAR-5 ovarian
